In brackets after ≈: the same amount, converted by molar mass.
Tests used:
[1] = solubility in water / aqueous medium; cited from earlier work
E. coli strain BW25113 [2] = assay: Shake flask fermentation with candidate alcohol acyltransferases, isoamyl acetate production (GC-FID); type: cell-based; conditions: strains identical except for the AAT, with leuABCD; 20 g/L glucose, 30° C., 48 hours
Excerpt: (§1) Each was cloned and transformed into E. coli strain BW25113 for analysis.
(§2) Three synthetic operons were constructed for gene expression to produce isobutyl acetate and isoamyl acetate (FIG. 5). All the plasmids were constructed to be under the regulation of PLlacO1 promoter. To produce isobutyl acetate, the first operon included four coding regions on a medium copy plasmid carrying kanamycin resistance marker in a transcriptional order ilvC-ilvD-alsS-AAT, with the ATT position being occupied by the coding region of one of the five exemplary acyltransferases (AAT) being analyzed. (FIG. 5(a)). The second operon included two coding regions on a high copy plasmid with an ampicillin resistance maker in a transcriptional order kivd-yqhD. For the synthesis of isoamyl acetate, the coding regions of leuA, leuB, leuC, and leuD involved in leucine biosynthesis were introduced in the first medium copy plasmid between alsS and AAT, and the same second high copy plasmid was used. (FIG. 5(b)).
(§3) We assessed the effect of each of the five exemplary acyltransferases on the production titers for isobutyl acetate and isoamyl acetate. […]
(§4) Shake flask fermentations were carried out for the recombinant strains. […] The produced medium-chain ester compounds were quantified by GC-FID (gas chromatography-flame ionization detector) analysis. […]

E. coli strain BW25113 [3] = assay: Shake flask fermentation with candidate alcohol acyltransferases, isobutyl acetate production (GC-FID); type: cell-based; conditions: strains identical except for the AAT; 20 g/L glucose, 30° C., 48 hours; ± standard deviation, three colonies
Excerpt: as §1, §2, §3, §4

Molecule | Solubility [1] | isoamyl acetate production titer (E. coli strain BW25113 [2]) | isobutyl acetate production titer (E. coli strain BW25113 [3])
CCO [Ethanol] | miscible |  | 
CCOC(C)=O [Ethyl acetate] | 83000 µg/mL |  | 
CCOC(=O)C(C)C [Ethyl isobutyrate] | 3200 µg/mL (≈ 27.5 mM) |  | 
CCOC(=O)CC(C)C [Ethyl isovalerate] | 2000 µg/mL (≈ 15.4 mM) |  | 
CC(C)COC(=O)C(C)C [isobutyl isobutyrate] | 500 µg/mL (≈ 3.47 mM) |  | 
CC(C)CC(=O)OC(=O)CC(C)C [isovaleryl isovalerate] | insoluble |  | 
ATF2: Alcohol acetyltransferase from S. cerevisiae, expressed in recombinant E. coli BW25113 (protein, listed as Saccharomyces cerevisiae) MEDIEGYEPHITQELIDRGHARRMGHLENYFAVLSRQKMYSNFTVYAELNKGVNKRQLMLVLKVLLQKYSTLAHTIIPKHYPHHEAYYSSEEYLSKPFPQHDFIKVISHLEFDDLIMNNQPEYREVMEKISEQFKKDDFKVTNRLIELISPVIIPLGNPKRPNWRLICLPGKDTDGFETWKNFVYVTNHCGSDGVSGSNFFKDLALLFCKIEEKGFDYDEEFIEDQVIIDYDRDYTEISKLPKPITDRIDYKPALTSLPKFFLTTFIYEHCNFKTSSESTLTARYSPSSNANASYNYLLHFSTKQVEQIRAQIKKNVHDGCTLTPFIQACFLVALYRLDKLFTKSLLEYGFDVAIPSNARRFLPNDEELRDSYKYGSNVGGSHYAYLISSFDIPEGDNDKFWSLVEYYYDRFLESYDNGDHLIGLGVLQLDFIVENKNIDSLLANSYLHQQRGGAIISNTGLVSQDTTKPYYVRDLIFSQSAGALRFAFGLNVCSTNVNGMNMDMSVVQGTLRDRGEWESFCKLFYQTIGEFASL |  | highest production titers | 1.69 ± 0.46 g/L
ATF1: Alcohol acetyltransferase from S. cerevisiae, expressed in recombinant E. coli BW25113 (protein, listed as Saccharomyces cerevisiae) MDLWKRLFEANPTKIRDKKIKNGHFISITNTINLSALMNEIDEKNQAPVQQECLKEMIQNGHARRMGSVEDLYVALNRQNLYRNFCTYGELSDYCTRDQLTLALREICLKNPTLLHIVLPTRWPNHENYYRSSEYYSRPHPVHDYISVLQELKLSGVVLNEQPEYSAVMKQILEEFKNSKGSYTAKIFKLTTTLTIPYFGPTGPSWRLICLPEEHTEKWKKFIFVSNHCMSDGRSSIHFFHDLRDELNNIKTPPKKLDYIFKYEEDYQLLRKLPEPIEKVIDFRPPYLFIPKSLLSGFIYNHLRFSSKGVCMRMDDVEKTDDVVTEIINISPTEFQAIKANIKSNIQGKCTITPFLHVCWFVSLHRWGKFFKPLNFEWLTDIFIPADCRSQLPDDDEMRQMYRYGANVGFIDFTPWISEFDMNDNKENFWPLIEHYHEVISEALRNKKHLHGLGFNIQGFVQKYVNIDKVMCDRAIGKRRGGTLLSNVGLFNQLEEPDAKYSICDLAFGQFQGSWHQAFSLGVCSTNVKGMNIVVASTKNVVGSQESLEELCSIYKALLLGP |  | highest production titers | 2.14 ± 0.17 g/L

From patent US10006064B2, “Biosynthetic pathways, recombinant cells, and methods” (REGENTS OF THE UNIVERSITY OF MINNESOTA, priority 2012, dated 2018)
